From patent US20190105409A9, “IMAGING AGENTS WITH IMPROVED PHARMACOKINETIC PROFILES” (GE HEALTHCARE AS, priority 2004, published 2019)

Assay: Biodistribution of radiolabelled compounds in a Lewis Lung mouse Carcinoma model
Type: in vivo
Conditions: for % ID/g kidney / % ID/g liver: tail vein injection of radiolabelled compound, excretion profile monitored at 5, 30, 60 and 120 minutes (time point not given)
Protocol: Biodistribution studies were carried out in a Lewis Lung mouse Carcinoma model as described in Bae et al, Drugs Exp Clin Res, 2003; 29 (1): 15-23. Following tail vein injection of the compounds, e the excretion profile was monitored at 5, 30, 60 and 120 minutes.

Row | SMILES | % ID/g kidney | % ID/g liver | excretion route / biodistribution in comparison to compounds 2 and 3 (tail vein injection, conclusion from Table 1)
1 | O=C(CCN(C1(C(=O)NO)CCCC1)S(=O)(=O)c1ccc(Oc2ccc(F)cc2)cc1)NCCc1ccc(O)c(I)c1 [Compound 2] | 7 % ID/g | 71 % ID/g | –
2 | NC(=O)C(Cc1ccc(O)c(I)c1)NC(=O)OC(=O)NCCOCCOCCOCCNC(=O)CCN(C1(C(=O)NO)CCCC1)S(=O)(=O)c1ccc(Oc2ccc(F)cc2)cc1 (stereo not shown) [Compound 3] | 20 % ID/g | 61 % ID/g | –
3 | NC(=O)C(Cc1ccc(O)c(I)c1)NC(=O)CCOCCOCCOCCOCCOCCOCCOCCOCCOCCOCCOCCOCCNC(=O)CCOCCOCCOCCOCCOCCOCCOCCOCCOCCOCCOCCOCCNC(=O)CCN(C1(C(=O)NO)CCCC1)S(=O)(=O)c1ccc(Oc2ccc(F)cc2)cc1 (stereo not shown) [Compound 4] | 70 % ID/g | 20 % ID/g | preferably excreted via the renal system
